Assay results taken from patent US12421225B2, “Heteroaromatic amide derivative and medicament containing the same” (KAKEN PHARMACEUTICAL CO., LTD., priority 2018, dated 2025).

Tests used:
human Nav1.7 = human Nav1.7 (Homo sapiens (Human), UniProt Q15858); assay: Human Nav1.7 inhibitory activity evaluation (automated patch clamp QPatch16X, HEK293A cells stably expressing human Nav1.7 and human Navβ1); type: cell-based
Summary of the method: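 IC50 calculated from the concentration-response of inward current evoked by the second −10 mV, 50 ms depolarisation, which follows a 15 s conditioning step at roughly 30-40% inactivation and a 100 ms −120 mV interval. Cells: HEK293A expressing human Nav1.7/Navβ1, automated patch clamp, room temperature, 0.1% DMSO final.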

human Nav1.5 = human Nav1.5 (Homo sapiens (Human), UniProt Q14524); assay: Human Nav1.5 inhibitory activity evaluation (automated patch clamp QPatch16X, HEK293 cells stably expressing human Nav1.5); type: cell-based
human Nav1.5, sequence (Q14524 whole entry): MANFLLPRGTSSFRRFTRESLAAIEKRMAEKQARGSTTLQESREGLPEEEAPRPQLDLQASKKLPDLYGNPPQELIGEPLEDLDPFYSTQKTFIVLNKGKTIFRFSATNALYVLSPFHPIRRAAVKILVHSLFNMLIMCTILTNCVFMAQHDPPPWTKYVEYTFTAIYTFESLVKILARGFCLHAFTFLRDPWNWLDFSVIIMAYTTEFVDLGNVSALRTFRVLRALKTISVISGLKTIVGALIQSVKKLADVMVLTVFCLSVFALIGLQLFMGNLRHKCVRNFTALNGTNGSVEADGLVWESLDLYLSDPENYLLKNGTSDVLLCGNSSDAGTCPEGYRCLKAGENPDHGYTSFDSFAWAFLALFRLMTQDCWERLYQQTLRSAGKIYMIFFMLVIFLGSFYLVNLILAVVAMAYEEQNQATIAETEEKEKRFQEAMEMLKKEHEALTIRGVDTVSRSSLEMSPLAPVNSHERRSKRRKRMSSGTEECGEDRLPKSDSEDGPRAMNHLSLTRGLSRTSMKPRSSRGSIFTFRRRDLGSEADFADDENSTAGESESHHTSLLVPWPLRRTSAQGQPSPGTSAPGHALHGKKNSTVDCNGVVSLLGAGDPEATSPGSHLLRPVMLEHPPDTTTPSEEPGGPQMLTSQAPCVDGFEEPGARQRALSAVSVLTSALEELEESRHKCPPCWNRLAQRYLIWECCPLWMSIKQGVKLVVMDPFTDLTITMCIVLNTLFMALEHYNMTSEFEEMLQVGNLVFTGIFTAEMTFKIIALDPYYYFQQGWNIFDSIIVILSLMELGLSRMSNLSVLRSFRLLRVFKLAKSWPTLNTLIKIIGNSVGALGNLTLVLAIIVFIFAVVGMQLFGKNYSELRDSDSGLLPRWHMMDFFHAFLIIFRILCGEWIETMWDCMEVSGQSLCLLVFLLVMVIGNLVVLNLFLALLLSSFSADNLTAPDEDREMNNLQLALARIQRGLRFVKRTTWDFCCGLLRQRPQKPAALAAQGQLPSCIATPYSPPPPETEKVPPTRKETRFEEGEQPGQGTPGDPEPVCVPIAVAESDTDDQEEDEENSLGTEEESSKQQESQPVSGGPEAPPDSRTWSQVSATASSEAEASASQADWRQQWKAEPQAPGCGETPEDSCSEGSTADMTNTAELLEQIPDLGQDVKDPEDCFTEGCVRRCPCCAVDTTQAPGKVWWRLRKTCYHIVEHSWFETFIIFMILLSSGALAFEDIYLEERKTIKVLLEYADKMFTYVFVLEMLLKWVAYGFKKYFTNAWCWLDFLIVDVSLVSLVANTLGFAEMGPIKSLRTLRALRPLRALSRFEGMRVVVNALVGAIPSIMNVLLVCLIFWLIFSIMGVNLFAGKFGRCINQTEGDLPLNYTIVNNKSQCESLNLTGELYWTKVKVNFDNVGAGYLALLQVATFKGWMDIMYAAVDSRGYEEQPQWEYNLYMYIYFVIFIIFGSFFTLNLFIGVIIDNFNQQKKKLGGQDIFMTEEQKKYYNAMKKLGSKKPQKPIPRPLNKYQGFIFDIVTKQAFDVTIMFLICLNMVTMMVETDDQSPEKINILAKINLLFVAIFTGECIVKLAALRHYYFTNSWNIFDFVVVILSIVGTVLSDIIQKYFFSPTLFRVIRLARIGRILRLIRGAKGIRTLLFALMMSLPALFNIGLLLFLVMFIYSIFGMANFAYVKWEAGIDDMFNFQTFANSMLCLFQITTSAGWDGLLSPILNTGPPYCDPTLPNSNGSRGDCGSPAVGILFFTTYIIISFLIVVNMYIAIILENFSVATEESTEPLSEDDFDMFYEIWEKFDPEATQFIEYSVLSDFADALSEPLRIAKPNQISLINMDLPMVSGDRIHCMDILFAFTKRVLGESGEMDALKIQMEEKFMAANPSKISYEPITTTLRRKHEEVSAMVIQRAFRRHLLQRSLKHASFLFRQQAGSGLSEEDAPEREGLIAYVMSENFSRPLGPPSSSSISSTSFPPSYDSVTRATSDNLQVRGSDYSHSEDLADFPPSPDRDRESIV
Summary of the method: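 IC50 derived from concentration-response of inward current at the 20th of 20 action-potential-mimicking pulses (holding −80 mV, leak corrected with −100 mV step). HEK293 cells stably expressing human Nav1.5, room temperature, extracellular pH 7.4, intracellular CsF-based pH 7.3, 0.1% DMSO.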

[1] = HEK293A cells stably expressing human Nav1.7 and human Navβ1, automated patch clamp QPatch16X
[2] = HEK293 cells stably expressing human Nav1.5, automated patch clamp QPatch16X
[3] = human Nav1.7, automated patch clamp
[4] = human Nav1.5, automated patch clamp

human Nav1.7, sequence (Q15858 whole entry): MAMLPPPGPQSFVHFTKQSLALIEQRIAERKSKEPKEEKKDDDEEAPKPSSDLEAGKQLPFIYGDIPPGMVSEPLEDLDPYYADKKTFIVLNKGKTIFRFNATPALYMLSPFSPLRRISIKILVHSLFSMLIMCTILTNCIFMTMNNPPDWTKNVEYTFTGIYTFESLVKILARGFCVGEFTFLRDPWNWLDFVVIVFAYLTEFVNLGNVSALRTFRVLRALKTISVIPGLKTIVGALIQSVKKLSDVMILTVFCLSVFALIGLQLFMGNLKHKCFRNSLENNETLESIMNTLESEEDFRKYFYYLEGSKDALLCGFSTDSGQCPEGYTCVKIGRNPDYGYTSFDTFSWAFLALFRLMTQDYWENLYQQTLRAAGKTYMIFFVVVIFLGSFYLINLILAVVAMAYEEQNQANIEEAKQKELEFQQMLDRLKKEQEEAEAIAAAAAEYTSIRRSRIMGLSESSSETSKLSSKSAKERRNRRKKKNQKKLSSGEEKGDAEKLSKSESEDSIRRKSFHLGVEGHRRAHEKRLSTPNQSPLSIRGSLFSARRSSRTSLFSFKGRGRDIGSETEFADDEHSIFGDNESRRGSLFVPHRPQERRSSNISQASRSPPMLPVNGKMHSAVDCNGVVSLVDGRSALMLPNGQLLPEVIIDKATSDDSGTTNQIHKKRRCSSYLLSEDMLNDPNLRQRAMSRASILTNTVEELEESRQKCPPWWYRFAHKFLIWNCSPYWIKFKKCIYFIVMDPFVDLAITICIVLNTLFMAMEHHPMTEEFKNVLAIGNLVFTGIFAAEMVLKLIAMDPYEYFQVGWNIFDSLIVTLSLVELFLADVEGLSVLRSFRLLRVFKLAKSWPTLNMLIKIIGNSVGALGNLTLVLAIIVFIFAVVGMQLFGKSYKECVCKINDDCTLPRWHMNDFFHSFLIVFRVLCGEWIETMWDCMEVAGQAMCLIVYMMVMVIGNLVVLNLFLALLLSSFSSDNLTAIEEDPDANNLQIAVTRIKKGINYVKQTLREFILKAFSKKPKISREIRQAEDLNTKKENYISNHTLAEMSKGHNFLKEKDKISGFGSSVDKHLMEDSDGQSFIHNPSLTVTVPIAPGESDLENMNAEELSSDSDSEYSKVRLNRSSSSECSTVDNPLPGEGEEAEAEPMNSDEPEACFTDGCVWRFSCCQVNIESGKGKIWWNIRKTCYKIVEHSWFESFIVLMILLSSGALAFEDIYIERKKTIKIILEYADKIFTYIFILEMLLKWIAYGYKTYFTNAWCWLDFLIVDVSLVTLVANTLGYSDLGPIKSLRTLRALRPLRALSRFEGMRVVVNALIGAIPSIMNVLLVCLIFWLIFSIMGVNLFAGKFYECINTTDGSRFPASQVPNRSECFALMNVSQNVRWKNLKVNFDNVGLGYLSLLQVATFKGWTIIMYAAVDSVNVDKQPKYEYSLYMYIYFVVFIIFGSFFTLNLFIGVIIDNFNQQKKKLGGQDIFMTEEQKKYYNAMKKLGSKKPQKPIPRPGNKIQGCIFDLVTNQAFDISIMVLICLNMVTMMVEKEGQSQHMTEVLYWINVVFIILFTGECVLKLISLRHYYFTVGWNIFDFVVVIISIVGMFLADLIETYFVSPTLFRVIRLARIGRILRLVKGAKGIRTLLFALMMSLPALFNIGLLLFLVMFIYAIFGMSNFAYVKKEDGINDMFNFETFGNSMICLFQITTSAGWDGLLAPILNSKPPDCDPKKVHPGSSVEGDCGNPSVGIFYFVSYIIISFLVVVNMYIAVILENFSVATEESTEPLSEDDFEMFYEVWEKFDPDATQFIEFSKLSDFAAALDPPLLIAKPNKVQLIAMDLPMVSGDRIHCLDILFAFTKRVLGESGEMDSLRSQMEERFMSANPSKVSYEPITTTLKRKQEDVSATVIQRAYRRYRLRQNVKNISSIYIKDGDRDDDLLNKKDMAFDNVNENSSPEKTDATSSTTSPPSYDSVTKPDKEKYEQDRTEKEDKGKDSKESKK
human Nav1.7, sequence (Q07699 19-218 partner): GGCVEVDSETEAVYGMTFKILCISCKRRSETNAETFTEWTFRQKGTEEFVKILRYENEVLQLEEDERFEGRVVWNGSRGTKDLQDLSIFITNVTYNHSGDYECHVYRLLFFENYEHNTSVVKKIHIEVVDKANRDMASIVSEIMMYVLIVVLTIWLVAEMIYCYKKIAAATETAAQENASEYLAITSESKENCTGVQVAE

IC50 (human Nav1.7; [1])	IC50 (human Nav1.7; [3])	SMILES	IC50 (human Nav1.5; [2])	IC50 (human Nav1.5; [4])
< 10 µM	–	O=C(N[C@H]1COc2ccc(-c3ccccn3)cc2C1)c1cc2n(n1)CCC(COCC(F)(F)F)O2 (some centres unmarked) [Example 130]	≥ 3 µM	–
< 1 µM	–	O=C(N[C@H]1COc2ccc(CC(F)F)cc2C1)c1cc2n(n1)CCC(COC(F)(F)F)O2 (some centres unmarked) [Example 135]	1 to 3 µM	–
< 1 µM	–	O=C(N[C@H]1COc2ccc(CC(F)F)cc2C1)c1cc2n(n1)CCC(COC(F)F)O2 (some centres unmarked) [Example 137]	≥ 3 µM	–
< 1 µM	–	O=C(N[C@H]1COc2ccc(COCC(F)(F)F)cc2C1)c1cc2n(n1)CCC(COC(F)F)O2 (some centres unmarked) [Example 139]	≥ 3 µM	–
–	< 1 µM	O=C(N[C@H]1COc2ccc(CCOC(F)F)cc2C1)c1cc2n(n1)CCC(COC(F)F)O2 (some centres unmarked) [Example 141]	–	≥ 3 µM
–	< 1 µM	N#Cc1ccc2c(c1)C[C@@H](NC(=O)c1cc3n(n1)CCC(CCOC(F)(F)F)O3)CO2 (some centres unmarked) [Example 143]	–	≥ 3 µM
–	< 1 µM	N#Cc1ccc2c(c1)C[C@@H](NC(=O)c1cc3n(n1)CCC(CCOC(F)F)O3)CO2 (some centres unmarked) [Example 145]	–	≥ 3 µM
–	< 1 µM	O=C(N[C@H]1COc2ccc(CC(F)F)cc2C1)c1cc2n(n1)CCC(CCOC(F)F)O2 (some centres unmarked) [Example 147]	–	≥ 3 µM
–	< 1 µM	O=C(N[C@H]1COc2ccc(COCC(F)(F)F)cc2C1)c1cc2n(n1)CCC(CCOC(F)F)O2 (some centres unmarked) [Example 149]	–	1 to 3 µM
–	< 1 µM	O=C(N[C@H]1COc2ccc(Cl)cc2C1)c1cc2n(n1)CCC(CNCC(F)(F)F)O2 (some centres unmarked) [Example 151]	–	1 to 3 µM
–	< 10 µM	N#Cc1ccc2c(c1)C[C@@H](NC(=O)c1cc3n(n1)CCC(CSC(F)(F)F)O3)CO2 (some centres unmarked) [Example 155]	–	≥ 3 µM
–	< 10 µM	O=C(N[C@H]1COc2ccc(Cl)cc2C1)c1cc2n(n1)CCC(C(F)F)O2 (some centres unmarked) [Example 157]	–	≥ 3 µM
–	< 1 µM	O=C(N[C@H]1COc2ccc(Br)cc2C1)c1cc2n(n1)CCC(C(F)F)O2 (stereo partly drawn) [Example 159, N—((R)-6-bromochroman-3-yl)-5-(difluoromethyl)-6,7-dihydro-5H-pyrazolo[5,1-b][1,3]oxazine-2-carboxamide]	–	≥ 3 µM
–	< 1 µM	O=C(N[C@H]1COc2ccc(COCC(F)(F)F)cc2C1)c1cc2n(n1)CCC(C(F)F)O2 (some centres unmarked) [Example 162]	–	≥ 3 µM
–	< 1 µM	O=C(N[C@H]1COc2ccc(CCOC(F)F)cc2C1)c1cc2n(n1)CCC(C(F)F)O2 (some centres unmarked) [Example 164]	–	≥ 3 µM
–	< 1 µM	CC(F)(F)C1CCn2nc(C(=O)N[C@H]3COc4ccc(Cl)cc4C3)cc2O1 (some centres unmarked) [Example 167]	–	1 to 3 µM
–	< 10 µM	CCC(O)(CC)C1CCn2nc(C(=O)N[C@H]3COc4ccc(Cl)cc4C3)cc2O1 (some centres unmarked) [Example 168]	–	≥ 3 µM
–	< 1 µM	O=C(N[C@H]1COc2ccc(Cl)cc2C1)c1cc2n(n1)CCC(C(F)(F)F)O2 (some centres unmarked) [Example 169]	–	1 to 3 µM
–	< 1 µM	O=C(N[C@H]1COc2ccc(Br)cc2C1)c1cc2n(n1)CCC(C(F)(F)F)O2 (some centres unmarked) [Example 171]	–	1 to 3 µM
–	< 10 µM	O=C(N[C@H]1COc2ccc(CC(F)F)cc2C1)c1cc2n(n1)CCC(C(F)(F)F)O2 (some centres unmarked) [Example 172]	–	≥ 3 µM
–	< 1 µM	N#Cc1ccc(-c2ccc3c(c2)C[C@@H](NC(=O)c2cc4n(n2)CCC(C(F)(F)F)O4)CO3)cn1 (some centres unmarked) [Example 174]	–	≥ 3 µM
–	< 10 µM	Cc1ccc(-c2ccc3c(c2)C[C@@H](NC(=O)c2cc4n(n2)CCC(C(F)(F)F)O4)CO3)cn1 (some centres unmarked) [Example 175]	–	≥ 3 µM
–	< 1 µM	CC1(C)CCn2nc(C(=O)N[C@H]3COc4ccc(Cl)cc4C3)cc2O1 [Example 177]	–	1 to 3 µM
–	< 10 µM	CC1(C)CCn2nc(C(=O)N[C@H]3COc4ccc(C#N)cc4C3)cc2O1 [Example 178]	–	≥ 3 µM
–	< 1 µM	O=C(N[C@H]1COc2ccccc2C1)c1cc2n(n1)CC(c1ccccc1)O2 (some centres unmarked) [Example 181]	–	≥ 3 µM
–	< 1 µM	O=C(N[C@H]1COc2ccc(COCC(F)(F)F)cc2C1)c1cc2n(n1)CC(COCC1CC1)O2 (some centres unmarked) [Example 185]	–	≥ 3 µM
–	< 1 µM	O=C(N[C@H]1COc2ccc(COCC(F)(F)F)cc2C1)c1cc2n(n1)CC(COCC(F)(F)F)O2 (stereo partly drawn) [Example 187, 2-((2,2,2-trifluoroethoxy)methyl)-N—((R)-6-((2,2,2-trifluoroethoxy)methyl)chroman-3-yl)-2,3-dihydropyrazolo[5,1-b]oxazole-6-carboxamide]	–	≥ 3 µM
–	< 1 µM	O=C(N[C@H]1COc2ccc(CCOC(F)F)cc2C1)c1cc2n(n1)CC(COCC(F)(F)F)O2 (some centres unmarked) [Example 189]	–	≥ 3 µM

IC50 (human Nav1.7; [1])	IC50 (human Nav1.7; [3])	SMILES	IC50 (human Nav1.5; [2])	IC50 (human Nav1.5; [4])
–	< 1 µM	O=C(N[C@H]1COc2ccc(COCC(F)(F)F)cc2C1)c1cc2n(n1)CC(COC(F)(F)F)O2 (some centres unmarked) [Example 195]	–	≥ 3 µM
–	< 1 µM	O=C(N[C@H]1COc2ccc(CC(F)F)cc2C1)c1cc2n(n1)CC(COC(F)(F)F)O2 (some centres unmarked) [Example 197]	–	≥ 3 µM
–	< 10 µM	N#Cc1ccc2c(c1)C[C@@H](NC(=O)c1cc3n(n1)CC(CSCC(F)(F)F)O3)CO2 (some centres unmarked) [Example 199]	–	≥ 3 µM
–	< 1 µM	N#Cc1ccc2c(c1)C[C@@H](NC(=O)c1cc3n(n1)CC(CCOCC1CC1)O3)CO2 (stereo partly drawn) [Example 201, N—((R)-6-cyanochroman-3-yl)-2-(2-(cyclopropylmethoxy)ethyl)-2,3-dihydropyrazolo[5,1-b]oxazole-6-carboxamide]	–	1 to 3 µM
–	< 10 µM	Cn1ccc(-c2ccc3c(c2)C[C@@H](NC(=O)c2cc4n(n2)CC(CCOCC(F)(F)F)O4)CO3)n1 (some centres unmarked) [Example 205]	–	≥ 3 µM
–	< 1 µM	N#Cc1ccc2c(c1)C[C@@H](NC(=O)c1cc3n(n1)CC(CCOC(F)(F)F)O3)CO2 (some centres unmarked) [Example 208]	–	< 1 µM
–	< 1 µM	Cn1ccc(-c2ccc3c(c2)C[C@@H](NC(=O)c2cc4n(n2)CC(CCOC(F)(F)F)O4)CO3)n1 (some centres unmarked) [Example 212]	–	≥ 3 µM
–	< 1 µM	O=C(N[C@H]1COc2ccc(COCC(F)(F)F)cc2C1)c1cc2n(n1)CC(CCOC(F)F)O2 (some centres unmarked) [Example 214]	–	1 to 3 µM
–	< 1 µM	O=C(N[C@H]1COc2ccc(CC(F)F)cc2C1)c1cc2n(n1)CC(CCOC(F)F)O2 (some centres unmarked) [Example 218]	–	≥ 3 µM
–	< 10 µM	Cn1cc(-c2ccc3c(c2)C[C@@H](NC(=O)c2cc4n(n2)CC(CCOC(F)F)O4)CO3)cn1 (some centres unmarked) [Example 220]	–	1 to 3 µM
–	< 1 µM	O=C(N[C@H]1COc2ccc(-c3cnccn3)cc2C1)c1cc2n(n1)CC(CCOC(F)F)O2 (some centres unmarked) [Example 222]	–	≥ 3 µM
–	< 1 µM	O=C(N[C@H]1COc2ccc(Cl)cc2C1)c1cc2n(n1)CC(CCNCC(F)(F)F)O2 (some centres unmarked) [Example 225]	–	1 to 3 µM
–	< 1 µM	Cc1ccc2c(c1)C[C@@H](NC(=O)c1cc3n(n1)CC(CCNCC(F)(F)F)O3)CO2 (some centres unmarked) [Example 227]	–	1 to 3 µM
–	< 1 µM	O=C(N[C@H]1COc2ccc(C(F)(F)F)cc2C1)c1cc2n(n1)CC(CCNCC(F)(F)F)O2 (some centres unmarked) [Example 229]	–	1 to 3 µM
–	< 1 µM	O=C(N[C@H]1COc2ccc(COCC(F)(F)F)cc2C1)c1cc2n(n1)CC(CCNCC(F)(F)F)O2 (some centres unmarked) [Example 231]	–	≥ 3 µM
–	< 1 µM	O=C(N[C@H]1COc2ccc(Cl)cc2C1)c1cc2n(n1)CC(CCN1CC(F)(F)C1)O2 (some centres unmarked) [Example 233]	–	< 1 µM
–	< 1 µM	N#Cc1ccc2c(c1)C[C@@H](NC(=O)c1cc3n(n1)CC(CCSCC(F)(F)F)O3)CO2 (some centres unmarked) [Example 243]	–	≥ 3 µM
–	< 1 µM	N#Cc1ccc2c(c1)C[C@@H](NC(=O)c1cc3n(n1)CC(CCCOCC(F)(F)F)O3)CO2 (some centres unmarked) [Example 245]	–	1 to 3 µM
–	< 1 µM	N#Cc1ccc2c(c1)C[C@@H](NC(=O)c1cc3n(n1)CCCC(c1ccccc1)O3)CO2 (some centres unmarked) [Example 251]	–	≥ 3 µM
–	< 1 µM	N#Cc1ccc2c(c1)C[C@@H](NC(=O)c1cc3n(n1)CCC(OC(F)(F)F)CO3)CO2 (stereo partly drawn) [Example 252, N—((R)-6-cyanochroman-3-yl)-6-(trifluoromethoxy)-5,6,7,8-tetrahydropyrazolo[5,1-b][1,3]oxazepine-2-carboxamide]	–	≥ 3 µM
–	< 1 µM	O=C(N[C@H]1COc2ccc(C(F)(F)F)cc2C1)c1nn2c(c1-c1ccn[nH]1)OCCCC2 [Example 258, (R)-3-(1H-pyrazol-5-yl)-N-(6-(trifluoromethyl)chroman-3-yl)-5,6,7,8-tetrahydropyrazolo[5,1-b][1,3]oxazepine-2-carboxamide]	–	< 1 µM
–	< 1 µM	O=C(N[C@H]1COc2ccc(Cl)cc2C1)c1cc2n(n1)CCN(CCC(F)(F)F)C2 [Example 261]	–	< 1 µM
–	< 10 µM	O=C(N[C@H]1COc2cccc(Cl)c2C1)c1cc2n(n1)CCN(CCC(F)(F)F)C2 [Example 262]	–	≥ 3 µM
–	< 1 µM	O=C(N[C@H]1COc2ccc(Cl)cc2C1)c1cc2n(n1)CCN(CCC1CC1)C2 [Example 263]	–	1 to 3 µM
–	< 1 µM	O=C(N[C@H]1COc2ccc(C(F)(F)F)cc2C1)c1cc2n(n1)CCN(CCOC1CCC1)C2 [Example 265]	–	≥ 3 µM
–	< 1 µM	O=C(N[C@H]1COc2ccc(COCC(F)(F)F)cc2C1)c1cc2n(n1)CCN(CCOC1CCC1)C2 [Example 266]	–	≥ 3 µM
–	< 10 µM	O=C(N[C@H]1COc2ccc(C(F)(F)F)cc2C1)c1nn2c(c1-c1ccccn1)CN(CC(F)(F)F)CC2 [Example 267]	–	< 1 µM
